The subject of data set [1] is HCT-15 human colon tumor xenograft. The data set is described as follows: Subcutaneous HCT-15 colon tumor model in athymic nude mice. It is filed as in vivo. Particulars: for body weight losses, highest reached: 2.5-15 mg/kg. An excerpt: All cell lines that are used in animal studies are free of Mycoplasma contamination (Rapid Detection System by Gen-Probe, Inc., San Diego, Calif.) and viral contamination (MAP testing by MA BioServices, Inc., Rockville, Md.). The HCT-15 human colon tumor cell line is purchased from the American Type Culture Collection, Rockville, Md., Accession Number ATCC CCL 225. The MIP 101 human colon tumor cell line is obtained from Dr. R. Kramer (Bristol Meyers Squibb) and was previously described (Niles R M, et al. Cancer Invest. 1987;5(6):545-52). These cells are Pgp-1 (human Pgp) overexpressors, making the cells resistant to paclitaxel. All cell lines are propagated and expanded in RPMI 1640 medium containing 10% heat-inactivated FBS (Life Technologies, Grand Island, N.Y.). Cell expansions for implantation are performed in T225 tissue culture flasks. Cells are harvested at 70-90% confluency, washed once with HBSS containing 10% FBS, and are suspended in plain HBSS.
Outbred athymic (nu/nu) female mice (“Hsd:Athymic Nude-nu” from Harlan Sprague Dawley, Indianapolis, Ind.) are anesthetized with Metofane (Mallinckrodt Veterinary, Inc., Mundelein, Ill.,). A cell suspension (100 μL) containing 1×10^6 cells is then injected sc into the right axillary (lateral) region of each animal. Tumors are allowed to grow until a volume of approximately 100 mm^3 was achieved. At this point, mice bearing tumors are sorted into groups of eight for the study. The sorting process produced groups balanced with respect to mean and range of tumor size.
Discodermolide is isolated from the sponge Discodermia dissoluta using the methods of (Gunasekera S P, et al. supra). Multiple batches of compound of similar purity (all>95% pure, as determined by mass spectrometry, and nuclear magnetic resonance analysis) are used throughout the various studies. Solid discodermolide is dissolved in pure ethanol to create a stock solution which is diluted just before dosing with Cremophor EL (Crm) and D5W to a final concentration of 16.7% Cremophor EL, 8.3% ethanol and 75% D5W. The compound is administered intravenously (iv). In the first study discodermolide is tested against both tumors at five different dosing schedules: (i.) 30 mg/kg dosed as two 15 mg/kg injections on day 1 of the experiment, (ii.) 30 mg/kg dosed as three 10 mg/kg injections on days 1, 2, and 3, (iii.) 15 mg/kg dosed as a single injection on day 1, (iv.) 20 mg/kg dosed as a 15 mg/kg injection on day 1, followed by a 5 mg/kg injection on day 11, and (v.) 10 mg/kg dosed as a 7.5 mg/kg injection on day 1 followed by a 2.5 mg/kg injection on day 11. In the second study discodermolide is dosed as one injection on the first day of the experiment, at 2.5 mg/kg, 5 mg/kg, 7.5 mg/kg, 10 mg/kg, 12.5 mg/kg, or 15 mg/kg. In addition the 7.5 mg/kg injection on day 1 followed by a 2.5 mg/kg injection on day 11 is repeated from the first study. The actual doses, regimens and routes of administration used for the specific models are discussed in each section separately. Positive control animals receive clinical formulations of paclitaxel (TAXOL) diluted 4-fold with D5W and administered iv once daily for five consecutive days. Vehicle control for paclitaxel is administered according to paclitaxel's schedule. In the first study vehicle controls for discodermolide (16.7% Cremophor EL, 8.3% ethanol and 75% D5W) are administered as three daily injections on days 1, 2, and 3, or as two injections on days 1, and 11. In the second study vehicle control for discodermolide is administered as a single injection on day 1.
Tumors are measured, and individual animal body weights are recorded once weekly. Standard experiments are conducted for 3 full weeks from the initial dosing.
Antitumor activity is expressed as % T/C (comparing Δ tumor volumes for treatment group to vehicle control group). […]

The subject of data set [2] is panel of human tumor lines (drug-susceptible cell lines). As to the kind of experiment: Antiproliferative assay, methylene blue staining. It is filed as cell-based. Particulars: 120 h, 5 days incubation. An excerpt: The following cell lines are obtained from the American Type Culture Collection (ATCC, Rockville, Md., USA): human colon carcinomas HCT-15 (CCL 225) and HCT-116 (CCL 247), human lung adenocarcinoma A549 (CCL 185), human large cell carcinoma NCI-H460 (HTB 177), estrogen-independent breast carcinoma MDA-MB-231 ([…]), prostate cancer cell line Du 145 (HTB 81). The human KB-31 (drug-sensitive) and KB-8511 (multidrug-resistant, Pgp170 overexpressing) epidermoid carcinoma cells are obtained from Dr. R. M. Baker, Roswell Park Memorial Institute (Buffalo, N.Y., USA) and have been previously described (Akiyam S, et al. Somatic Cell Molec Genetics 1985;11:117-126 and Fojo A, et al., Cancer Res. […];45:3002-3007). The human metastatic prostate carcinoma PC-3M is obtained from Dr. I. J. Fidler (MD Anderson Cancer Center, Houston, Tex., USA). The estrogen-dependent human breast carcinoma cell line MCF-7/ADR (multidrug resistant) is a subline of the MCF-7 cell line (ATCC HTB 22) and is obtained from Dr. D. Fabbro (Novartis Pharma AG, Basel, Switzerland) and has been previously described (Blobe G C, et al. J. Biol. Chem. 1993; 268:658-664).
For the antiproliferative assays, cells are seeded at 1.5×10^3/well into 96-well microtiter plates and incubated overnight. Compounds are added in serial dilutions on day 1. The plates are than incubated for additional 5 days. This allowed the control cultures to undergo at least 3 cell divisions. After incubation the cells are fixed with 3.3% v/v glutaraldehyde, washed with water and stained with 0.05% w/v methylene blue. After washing, the dye is eluted with 3% v/v HCl and the optical density measured at 665 nm with a SpectraMax 340 (Bucherer, Basel, Switzerland). IC50 values are determined by a computerized system (SoftPro, Bucherer, Basel, Switzerland) using the formula (OD test—OD start)/(OD control—OD start)×100. IC50 is defined as the drug concentration which leads to 50% of cells per well compared to control cultures (100%) at the end of the incubation period.

Where [3] appears, read: first study, 7.5 mg/kg day 1 + 2.5 mg/kg day 11.
The mark [4] stands for this setting: first study, discodermolide iv single 15 mg/kg injection on day 1.
Setting [5] is: first study, two 15 mg/kg injections on day 1 (30 mg/kg total).
Where [6] appears, read: second study, 7.5 mg/kg day 1 + 2.5 mg/kg day 11.

Two compounds from patent US6774143B1, “Method for treating cells resistant to antineoplastic agents” (Novartis AG, priority 2003, dated 2004) can be followed below.

Turning to `C=C/C=C\[C@H](C)[C@H](OC(N)=O)[C@@H](C)[C@H](O)[C@@H](C)C/C(C)=C\[C@H](C)[C@@H](O)[C@@H](C)/C=C\[C@@H](O)C[C@@H]1OC(=O)[C@H](C)[C@@H](O)[C@H]1C` [discodermolide, (+)-Discodermolide], in data set [1] (HCT-15 xenograft, athymic nude mice), the “inhibition of tumor growth (in words)” value is “statistically significant (p<0.01) and reproducible inhibition of tumor growth”. In addition, the T/C (commonly the ratio of treated to control) is recorded as 31% in data set [1] (setting [3]); 43% in data set [1] (setting [4]); 22% in data set [1] (setting [5]); 29% in data set [1] (setting [6]); 62% in data set [1] (second study, single injection 2.5 mg/kg day 1); 44% in data set [1] (second study, single injection 5 mg/kg day 1). In addition, the T/C was 43% in data set [1] (second study, single injection 7.5 mg/kg day 1); 40% in data set [1] (second study, single injection 10 mg/kg day 1); 28% in data set [1] (second study, single injection 12.5 mg/kg day 1); 27% in data set [1] (second study, single injection 15 mg/kg day 1); 54% in data set [1] (third study, single injection 2.5 mg/kg day 1); 43% in data set [1] (third study, single injection 5 mg/kg day 1). Moreover, the T/C in data set [1] (third study, single injection 7.5 mg/kg day 1) turned out to be 23%; in data set [1] (third study, single injection 10 mg/kg day 1), 27%; in data set [1] (third study, single injection 12.5 mg/kg day 1), 25%; in data set [1] (third study, single injection 15 mg/kg day 1), 19%. Besides, the body weight loss in data set [1] (setting [3]) is 17.3%; in data set [1] (setting [4]), 18.9%; in data set [1] (setting [5]) it was 24.6%; in data set [1] (setting [6]) it was 11.4%. The “fate of the remaining four animals” value in data set [1] (first study, 15 mg/kg day 1 + 5 mg/kg day 11) is listed as “sacrificed due to the excessive body weight loss”. Moreover, the “animals that die in the second week” value in data set [1] (first study, 15 mg/kg day 1 + 5 mg/kg day 11, group of eight) was “Four animals”. Further, in data set [1] (first study, 30 mg/kg as three 10 mg/kg injections on days 1, 2, 3, all animals), the “fate of the animals” value is “sacrificed in the beginning of the third week of the experiment due to excessive body weight loss”. Moreover, the figures for the “body weight losses, highest reached” value in data set [1] (original dose response study (second)) and in data set [1] (repeat of the dose response study (third experiment)) were 13% and 23%, respectively. For the same compound, the body weight change in data set [1] (second study, single injection 2.5 mg/kg, gain) is 3.5%; in data set [1] (second study, single injection 5 mg/kg), −1.9%; in data set [1] (second study, single injection 7.5 mg/kg), −7.9%; in data set [1] (second study, single injection 10 mg/kg), −8.5%; in data set [1] (second study, single injection 12.5 mg/kg), −12.9%; in data set [1] (second study, single injection 15 mg/kg) it was −11.0%. Besides, the body weight change in data set [1] (third study, single injection 2.5 mg/kg, gain) is on record as 1.7%; in data set [1] (third study, single injection 5 mg/kg), −8.9%; in data set [1] (third study, single injection 7.5 mg/kg) it was −23.3%; in data set [1] (third study, single injection 10 mg/kg), −17.6%; in data set [1] (third study, single injection 12.5 mg/kg) it was −20.1%; in data set [1] (third study, single injection 15 mg/kg), −13.4%. The 50% inhibitory concentration (IC50) (in general, the concentration at which inhibition is half-maximal) in data set [2] fell in the range of 2 to 24 nM.
As for `CC(=O)O[C@H]1C(=O)[C@@]2(C)[C@H]([C@H](OC(=O)c3ccccc3)[C@]3(O)C[C@H](OC(=O)[C@H](O)[C@@H](NC(=O)c4ccccc4)c4ccccc4)C(C)=C1C3(C)C)[C@]1(OC(C)=O)CO[C@@H]1C[C@@H]2O` [paclitaxel, reference compound], the T/C in data set [1] (first study, paclitaxel 15 mg/kg daily for the first 5 days) was found to be 95%; in data set [1] (second study, paclitaxel iv once daily for five days), 94%; in data set [1] (third study, paclitaxel iv once daily for five days), 81%.
